This passage reports IC50 results from patent US20220226342A1, “COMPOSITIONS AND METHODS OF TREATING LIVER CANCERS” (The Johns Hopkins University, priority 2019, published 2022).

The structures appear in SMILES notation.

Holding throughout (assay): IC50 in PDO line
Holding throughout (type): cell-based
Conditions in all cases: Homo sapiens

The test system of test [1] is HCC 80-2. How it is done:
(§1) The inventors tested omacetaxine at decreasing concentrations (10 μM, 1 μM, 100 nM, 10 nM and 1 nM) to calculate the half-maximal inhibitory concentration (IC50). […] The IC50 value for each of the 40 HCC PDO lines can be found in Table 2.

Test [2] has as its system HCC 25-1. The method, then: as §1
Test [3] has as its system HCC 26-5. How it is done:
as §1

Test [4] concerns HCC 67-1. How it is done:
as §1

Test [5] relates to HCC 71-2. How it is done: as §1
Test [6] deals with HCC 37. The method, then: as §1
Test [7] concerns HCC 25-3. The method, then:
as §1

Test [8] deals with HCC 67-3. The method, then:
as §1

For test [9], the system named is HCC 80-5. The method, then:
as §1

Test [10] deals with HCC 67-2. The method, then: as §1
In test [11] the test system is HCC 26-4. How it is done:
as §1

Test [12] deals with HCC 80-3. The method, then:
as §1

Test [13] has as its system HCC 34-3. How it is done:
as §1

The subject of test [14] is HCC 30. How it is done:
as §1

Test [15] has as its system HCC 26-3. The method, then:
as §1

Test [16] relates to HCC 83-2. The method, then:
as §1

Test [17] concerns HCC 65-3. The method, then:
as §1

For test [18], the system named is HCC 38. How it is done:
as §1

Test [19] relates to HCC 36-3. The method, then:
as §1

In test [20] the test system is HCC 59. How it is done:
as §1

Test [21] relates to HCC 26-6. How it is done:
as §1

Regarding `COC(=O)C[C@](O)(CCCC(C)(C)O)C(=O)O[C@@H]1C(OC)=C[C@]23CCCN2CCc2cc4c(cc2[C@H]13)OCO4` [omacetaxine, omacetaxine mepusuccinate], the 50% inhibitory concentration (IC50) in [1] was 44 nM; in [2] it was 37.4 nM; in test [3], 66.7 nM; in test [4] it was 4.03 nM; in [5], 2.05 nM; in [6], 3.52 nM. Further, the IC50 in test [7] was 60.1 nM; in [8], 1.67 nM; in test [9] it was 27.6 nM; in test [10] it was 12.8 nM; in test [11], 33.5 nM; in test [12] it was 15.7 nM. For the same compound, the IC50 in [13] is 37.7 nM; in test [14], 50.6 nM; in test [15] it was 27.8 nM; in test [16], 19.2 nM; in test [17], 2.26 nM; in test [18], 18.5 nM. Moreover, the values for the IC50 in test [19], in [20] and in test [21] were 80.7 nM, 21.2 nM and 80.8 nM, respectively.

Usually IC50 stands for the point on the concentration scale where inhibition reaches its midpoint.
